Assay results published in PMC7221482 (Neurochemistry international, 2019).
Where a name gives a salt, the structure may show the parent alone. Read-outs that look alike come from different tables or passages of the source.

Key:
[1] = molecular target: T1, hα4β2 AChRs ([3H]imipramine sites) (Homo sapiens, UniProt P17787+P43681); conditions: read-out: Kd (dissociation constant), ref Arias et al., 2010b; cited from earlier work
[2] = molecular target: T2, hα3β4 AChRs ([3H]imipramine sites) (Homo sapiens, UniProt P30926+P32297); conditions: ref Arias et al., cited from earlier work
hα4β2 AChRs = hα4β2 AChRs (Homo sapiens, UniProt P17787+P43681); assay type: cell-based
[3] = molecular target: T1, hα4β2 AChRs ([3H]imipramine sites); experiment: [3H]Imipramine competition binding to hα4β2 AChR-containing membranes
rα9α10 AChRs = rα9α10 AChRs (Rattus norvegicus, UniProt P43144+Q9JLB5); assay type: cell-based
hα7 AChRs = hα7 AChRs (Homo sapiens, UniProt P36544); assay type: cell-based
habenular mα3β4* AChRs = habenular mα3β4* AChRs (Mus musculus, UniProt Q8R493+Q8R4G9); experiment: Patch-clamp recordings of ACh-evoked currents from MHb; assay type: cell-based
[4] = molecular target: T2, hα3β4 AChRs ([3H]imipramine sites); experiment: [3H]Imipramine competition binding to hα3β4 AChR-containing membranes
hα3β4 AChRs = hα3β4 AChRs (Homo sapiens, UniProt P30926+P32297); assay type: cell-based
[5] = desensitized state, [3H]imipramine competition

CN(C)CCCN1c2ccccc2CCc2ccccc21 [[^3H]imipramine, [^3H]Imipramine hydrochloride]
Kd [1]: 0.83 µM
Kd ([2]; read-out: Kd (dissociation constant), hα3β4 AChRs, 2010c): 0.41 µM

CN(C)CCCC1(c2ccc(F)cc2)OCc2cc(C#N)ccc21 (racemic) [(±)-citalopram, 1-[3-(dimethylamino)propyl]-1-(4-fluorophenyl)-1,3-dihydro-5-isobenzofurancarbonitrile]
IC50 (hα4β2 AChRs): 19.1 ± 4.2 µM
nH (Hill coefficient) (hα4β2 AChRs; inhibition of (±)-epibatidine-induced Ca2+ influx, HEK293-hα4β2 cells): 1.24 ± 0.19
Ki [3]: 4.1 ± 0.3 µM
Ki ([3]; Ki (binding affinity), resting state, in the presence of 0.1 κ-bungarotoxin): 5.9 ± 0.4 µM
nH (Hill coefficient) [3, 5]: 0.72 ± 0.03
IC50 (rα9α10 AChRs): 7.5 ± 0.9 µM
increase of the ACh EC50 value (rα9α10 AChRs; 8.0 μM (±)-citalopram, p = 0.0001): 7.5 fold
nH (Hill coefficient) (rα9α10 AChRs; inhibition of 10 μM ACh-evoked rα9α10 currents, Xenopus oocytes): 1.35 ± 0.10
inhibition at 10 µM (rα9α10 AChRs; read-out: inhibition of ACh responses, 10 μM (±)-citalopram, 10 μM ACh, +40 mV): 43.3 ± 4.9%
inhibition at 10 µM (rα9α10 AChRs; read-out: inhibition of ACh responses, 10 μM (±)-citalopram, 10 μM ACh, −90 mV): 46 ± 4.7%
IC50 (hα7 AChRs): 18.8 ± 1.1 µM
nH (Hill coefficient) (hα7 AChRs; inhibition of (±)-epibatidine-induced Ca2+ influx, GH3-hα7 cells): 1.44 ± 0.22
IC50 (habenular mα3β4* AChRs; IC50(0), ligand concentration to produce 50% inhibition at 0 mV, one-site blocking model, Eq. (1)): 92 µM
IC50 (habenular mα3β4* AChRs; IC50, inhibition of 100 μM ACh puff-evoked currents, MHb (VI) neurons): 7.6 ± 1 µM
Ki [4]: 1.8 ± 0.1 µM
nH (Hill coefficient) [4, 5]: 0.74 ± 0.04
IC50 (hα3β4 AChRs): 5.1 ± 1.3 µM
nH (Hill coefficient) (hα3β4 AChRs; inhibition of (±)-epibatidine-induced Ca2+ influx, HEK293-hα3β4 cells): 1.00 ± 0.10

CC(=O)OCC[N+](C)(C)C [ACh, acetylcholine]
nH of ACh (rα9α10 AChRs; No (±)-citalopram): 0.98 ± 0.2
nH of ACh (rα9α10 AChRs; in the presence of 8.0 μM (±)-citalopram): 1.11 ± 0.6

CNCCC(Oc1ccc(C(F)(F)F)cc1)c1ccccc1 (centres unmarked) [fluoxetine]
Ki ([2]; hα3β4 AChR, [3H]imipramine sites, 2010a): 4.8 ± 0.5 µM
